Columns and labels:
A375 cells = assay: A375 cell proliferation assay (CellTiter-Blue/resazurin); format: cell-based; conditions: Homo sapiens, A-375, V600E mutation, read-out: Cell Proliferation Inhibition IC50, nM A375
Description: (§1) A375 cells (catalog #CRL-1619) are obtained from the American Type Culture Collection (ATCC, Manassas, Va.). Briefly, cells are grown in DMEM High Glucose supplemented with 10% characterized fetal bovine serum (Invitrogen, Carlsbad, Calif.) and 1% Penicillin/Streptomycin/L-Glutamine at 37 degrees Celsius, 5% CO2, and 95% humidity. Cells are allowed to expand until reaching 70-95% confluency at which point they are subcultured or harvested for assay use. A serial dilution of test compound is dispensed into a 384-well black clear bottom plate in triplicate. Six hundred twenty-five cells are added per well in 50 μL complete growth medium in the 384-well plate. Plates are incubated for 67 hours at 37 degrees Celsius, 5% CO2, and 95% humidity. At the end of the incubation period, 10 μL of a 440 μM solution of resazurin (Sigma, St. Louis, Mo.) in PBS is added to each well of the plate and plates are incubated for an additional 5 hours at 37 degrees Celsius, 5% CO2, and 95% humidity. Plates are read on a Synergy2 reader (Biotek, Winooski, Vt.) using an excitation of 540 nm and an emission of 600 nm. Data is analyzed using Prism software (Graphpad, San Diego, Calif.) to calculate IC50 values.
(§2) The A375, HT-29, and Colo-205 cells (ATCC) harbor a V600E mutation.

Colo205 cells = assay: Colo-205 cell proliferation assay (resazurin); format: cell-based; conditions: Homo sapiens; Colo-205 cells, V600E mutation; read-out: Cell Proliferation Inhibition IC50, nM Colo-205
Description: as §1, with “Colo205 cells” for “A375 cells”, “(catalog #HB-8307)” for “(catalog #CRL-1619)”, “in RPMI 1640” for “in DMEM High Glucose”, “Carlsbad, Calif.), 1 mM sodium pyruvate,” for “Carlsbad, Calif.)”, “reaching 30-60%” for “reaching 70-95%”, “triplicate. One thousand two-hundred fifty” for “triplicate. Six hundred twenty-five”
as §2

human B-Raf V600E = target: T1, human B-Raf V600E (Homo sapiens, UniProt P15056, V600E); assay: Enzymatic assay of B-Raf V600E kinase activity (Raf/MEK1 ATPase, coupled PK/LDH, A340); format: biochemical; conditions: read-out: Enzyme IC50, nM B-Raf V600E
T1 construct: B-RafV600E (residues 433-726 containing V600E mutation) containing an N-terminal purification tag is expressed and purified; made in house
Description: Test compounds are evaluated for their inhibitory activities against one or more of human wild type B-Raf, human wild type C-Raf, human B-Raf V600E, human B-Raf V600E+T529I or human B-Raf V600E+G468A. T529I is a threonine to isoleucine B-Raf gatekeeper mutation and G468A is a B-Raf secondary mutation at G1403C in exon 11. The enzymatic assays of B-Raf, C-Raf and B-Raf mutations evaluate a property of Raf and MEK1 complex, which in the presence of ATP, catalyzes an enhanced ATP hydrolysis (Rominger, et al, Arch. Biochem. Biophys. 2007, 464: 130-137; US Patent Publication No. 2006/0211073). The ADP formed is monitored by the well-known coupled PK/LDH (pyruvate kinase/lactate dehydrogenase) system in the form of NADH oxidation, which can be monitored and detected spectrophotometrically by absorbance at 340 nm (A340; for principal of the method see Schindler et al, Science, 2000, 289: 1938-1942). Raf activated MEK1 ATPase activity is a property shared by all forms of Raf proteins.
B-RafV600E (residues 433-726 containing V600E mutation) containing an N-terminal purification tag is expressed and purified essentially as described previously (Wan et al, Cell, 2004, 116, 855-867).
Test compounds are evaluated for their inhibitory activities against one or more of wild type B-Raf, wild type C-Raf, B-Raf V600E, B-Raf V600E+T529I and B-Raf V600E+G468A. T529I is a B-Raf gatekeeper mutation and G468A is a B-Raf secondary mutation. The enzymatic assays of B-Raf, C-Raf and B-Raf mutations evaluate a property of Raf and MEK1 complex, which in the presence of ATP, catalyzes an enhanced ATP hydrolysis (Rominger, et al, Arch. Biochem. Biophys. 2007, 464: 130-137). The ADP formed is monitored by the well-known coupled PK/LDH (pyruvate kinase/lactate dehydrogenase) system in the form of NADH oxidation, which can be monitored and detected by absorbance at 340 nm (A340; for principal of the method see Schindler et al, Science, 2000, 289: 1938-1942). Raf activated MEK1 ATPase activity is a property shared by all forms of Raf proteins. In the B-Raf wild type enzymatic assay, the reaction mixture contains 1.2 nM B-Raf, 30 nM MEK1, 1000 uM ATP, 3.5 units (per 100 ul) of PK, 5 units (per 100 ul) of LDH, 1 mM phosphoenol pyruvate (PEP), and 280 uM of NADH. In the C-Raf assay, the reaction mixture contains 0.6 nM C-Raf, 26 nM MEK1, 2000 uM ATP, and the same amount of PK, LDH, PEP and NADH as above. In the B-Raf V600E assay, the reaction mixture contains […] B-Raf V600E, 26 nM MEK1, 200 uM ATP and the same amount of PK, LDH, PEP and NADH as above. In the B-RafV600E+T529I assay, the reaction mixture contains 6.2 nM B-Raf V600E+T529I, 30 nM MEK1, 200 uM ATP and the same amount of PK, LDH, PEP and NADH as above. In the B-Raf V600E+G468A assay, the reaction mixture contains 3.5 nM B-Raf, 30 nM MEK1, 200 uM ATP and the same amount of PK, LDH, PEP and NADH as above. All assays are started by mixing the above mixture with test compound and monitoring at A340 continuously for approximately 5 hr. […] In the aforementioned assays, the enzyme constructs can be screened prior to or after cleavage of the N-terminal purification tag.

T1 sequence (P15056 433-726 V600E): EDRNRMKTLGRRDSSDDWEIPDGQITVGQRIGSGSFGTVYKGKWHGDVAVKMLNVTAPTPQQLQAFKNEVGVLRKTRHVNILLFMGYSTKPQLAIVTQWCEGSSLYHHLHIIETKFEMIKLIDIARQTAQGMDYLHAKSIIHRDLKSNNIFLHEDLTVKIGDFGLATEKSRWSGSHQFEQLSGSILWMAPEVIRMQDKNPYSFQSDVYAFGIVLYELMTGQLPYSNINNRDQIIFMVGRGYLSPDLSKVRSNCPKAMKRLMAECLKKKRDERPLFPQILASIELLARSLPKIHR

**Q.** Which IC50 (A375 cells) does the source give for `Cc1cc(F)c(NC(=O)NCCC(C)(C)C)cc1-c1cc2cnc(NCCN(C)C)nc2nc1C` [Example 17, 1-[5-[2-(2-Dimethylaminoethylamino)-7-methyl-pyrido[2,3-d]pyrimidin-6-yl]-2-fluoro-4-methyl-phenyl]-3-(3,3-dimethylbutyl)urea] here?
**A.** The IC50 was less than 100 nM.

**Q.** What about the IC50 (Colo205 cells) of the same compound?
**A.** The IC50 was less than 100 nM.

**Q.** What about the IC50 (human B-Raf V600E) of the same compound?
**A.** Its IC50 is less than 150 nM.

**Q.** With `CNc1ncc2cc(-c3cc(NC(=O)NC[C@H](O)C(C)(C)C)c(F)cc3C)cnc2n1` [Example 18, 1-[2-Fluoro-4-methyl-5-(2-methylaminopyrido[2,3-d]pyrimidin-6-yl)phenyl]-3-[(2R)-2-hydroxy-3,3-dimethyl-butyl]urea] as the compound, how does the IC50 (A375 cells) read?
**A.** The IC50 was 100 to 1000 nM.

**Q.** And the IC50 (Colo205 cells)?
**A.** Its IC50 is less than 100 nM.

**Q.** And the IC50 (human B-Raf V600E)?
**A.** The IC50 was less than 150 nM.

**Q.** For `CNc1ncc2cc(-c3cc(NC(=O)NC[C@@H](O)C(C)(C)C)c(F)cc3C)cnc2n1` [Example 19, 1-[2-fluoro-4-methyl-5-(2-methylaminopyrido[2,3-d]pyrimidin-6-yl)phenyl]-3-[(2S)-2-hydroxy-3,3-dimethyl-butyl]urea], which IC50 (A375 cells) is on record?
**A.** The IC50 was 100 to 1000 nM.

**Q.** And the IC50 (Colo205 cells)?
**A.** Its IC50 is 100 to 1000 nM.

**Q.** And the IC50 (human B-Raf V600E)?
**A.** Its IC50 is less than 150 nM.

**Q.** What does the source list for `Cc1cc(F)c(NC(=O)NCCC(C)(C)C)cc1-c1cc2cnc(N)nc2nc1C` [Example 20, 1-(5-(2-Amino-7-methylpyrido[2,3-d]pyrimidin-6-yl)-2-fluoro-4-methylphenyl)-3-(3,3-dimethylbutyl)urea]?
**A.** IC50 (A375 cells): < 100 nM; IC50 (Colo205 cells): < 100 nM; IC50 (human B-Raf V600E): < 150 nM

**Q.** Which results are given for `Cc1cc(F)c(NC(=O)NCCC(C)(C)C)cc1-c1cc2cnc(NCCN3CCOCC3)nc2nc1C` [Example 21, 1-(3,3-Dimethylbutyl)-3-(2-fluoro-4-methyl-5-(7-methyl-2-((2-morpholinoethyl)amino)pyrido[2,3-d]pyrimidin-6-yl)phenyl)ure]?
**A.** IC50 (A375 cells): < 100 nM; IC50 (Colo205 cells): < 100 nM; IC50 (human B-Raf V600E): < 150 nM

**Q.** With `Cc1cc(F)c(NC(=O)NCCC(C)(C)C)cc1-c1cc2cnc(NCc3cn(C)cn3)nc2nc1C` [Example 22, 1-(3,3-Dimethylbutyl)-3-(2-fluoro-4-methyl-5-(7-methyl-2-(((1-methyl-1H-imidazol-4-yl)methyl)amino)pyrido[2,3-d]pyrimidin-6-yl)phenyl)urea] as the compound, how does the IC50 (A375 cells) read?
**A.** The IC50 was less than 100 nM.

**Q.** What about the IC50 (Colo205 cells) of the same compound?
**A.** Its IC50 is less than 100 nM.

**Q.** What about the IC50 (human B-Raf V600E) of the same compound?
**A.** Its IC50 is less than 150 nM.

**Q.** What does the source list for `Cc1cc(F)c(NC(=O)NCCC2(C)CC2)cc1-c1cc2cnc(N)nc2nc1C` [Example 23, 1-(5-(2-Amino-7-methylpyrido[2,3-d]pyrimidin-6-yl)-2-fluoro-4-methylphenyl)-3-(2-(1-methylcyclopropyl)ethyl)urea]?
**A.** IC50 (A375 cells): 100 to 1000 nM; IC50 (Colo205 cells): < 100 nM; IC50 (human B-Raf V600E): < 150 nM

**Q.** `CNc1ncc2cc(-c3cc(NC(=O)NCCC4(C)CC4)c(F)cc3C)c(C)nc2n1` [Example 24, 1-(2-Fluoro-4-methyl-5-(7-methyl-2-(methylamino)pyrido[2,3-d]pyrimidin-6-yl)phenyl)-3-(2-(1-methylcyclopropyl)ethyl)urea] was tested. Which IC50 (A375 cells) did it give?
**A.** The IC50 was less than 100 nM.

**Q.** And the IC50 (Colo205 cells)?
**A.** The IC50 was less than 100 nM.

**Q.** What about the IC50 (human B-Raf V600E) of the same compound?
**A.** Its IC50 is less than 150 nM.

**Q.** With `Cc1cc(F)c(NC(=O)NCCC(C)(C)F)cc1-c1cc2cnc(NC3COC3)nc2nc1C` [Example 25, 1-(3-Fluoro-3-methylbutyl)-3-(2-fluoro-4-methyl-5-(7-methyl-2-(oxetan-3-ylamino)pyrido[2,3-d]pyrimidin-6-yl)phenyl)urea] as the compound, how does the IC50 (A375 cells) read?
**A.** Its IC50 is less than 100 nM.

**Q.** And the IC50 (Colo205 cells)?
**A.** Its IC50 is less than 100 nM.

**Q.** And the IC50 (human B-Raf V600E)?
**A.** The IC50 was less than 150 nM.

**Q.** Which results are given for `CCNc1ncc2cc(-c3cc(NC(=O)NCCC(C)(C)F)c(F)cc3C)c(C)nc2n1` [Example 26, 1-(5-(2-(Ethylamino)-7-methylpyrido[2,3-d]pyrimidin-6-yl)-2-fluoro-4-methylphenyl)-3-(3-fluoro-3-methylbutyl)urea]?
**A.** IC50 (A375 cells): 100 to 1000 nM; IC50 (Colo205 cells): 100 to 1000 nM; IC50 (human B-Raf V600E): < 150 nM

**Q.** Which results are given for `CNc1ncc2cc(-c3cc(NC(=O)NCCC(C)(C)C(F)(F)F)c(F)cc3C)c(C)nc2n1` [Example 27, 1-(2-Fluoro-4-methyl-5-(7-methyl-2-(methylamino)pyrido[2,3-d]pyrimidin-6-yl)phenyl)-3-(4,4,4-trifluoro-3,3-dimethylbutyl)urea]?
**A.** IC50 (A375 cells): < 100 nM; IC50 (Colo205 cells): < 100 nM; IC50 (human B-Raf V600E): < 150 nM

**Q.** For `Cc1cc(F)c(NC(=O)NCCC(C)(C)F)cc1-c1cc2cnc(N)nc2nc1C` [Example 28, 1-(5-(2-Amino-7-methylpyrido[2,3-d]pyrimidin-6-yl)-2-fluoro-4-methylphenyl)-3-(3-fluoro-3-methylbutyl)urea], which IC50 (A375 cells) is on record?
**A.** The IC50 was 1000 to 10000 nM.

**Q.** What about the IC50 (Colo205 cells) of the same compound?
**A.** The IC50 was 100 to 1000 nM.

**Q.** What about the IC50 (human B-Raf V600E) of the same compound?
**A.** The IC50 was less than 150 nM.

**Q.** Which IC50 (A375 cells) does the source give for `Cc1cc(F)c(NC(=O)NCCC(C)(C)F)cc1-c1cc2cnc(NCCO)nc2nc1C` [Example 29, 1-(3-Fluoro-3-methylbutyl)-3-(2-fluoro-5-(2-((2-hydroxyethyl)amino)-7-methylpyrido[2,3-d]pyrimidin-6-yl)-4-methylphenyl)urea] here?
**A.** Its IC50 is 1000 to 10000 nM.

**Q.** What about the IC50 (Colo205 cells) of the same compound?
**A.** Its IC50 is 100 to 1000 nM.

**Q.** What about the IC50 (human B-Raf V600E) of the same compound?
**A.** The IC50 was less than 150 nM.

**Q.** How did the IC50 (A375 cells) turn out when `CNc1ncc2cc(-c3cc(NC(=O)NCCC4(C(F)(F)F)CC4)c(F)cc3C)c(C)nc2n1` [Example 30, 1-(2-Fluoro-4-methyl-5-(7-methyl-2-(methylamino)pyrido[2,3-d]pyrimidin-6-yl)phenyl)-3-(2-(1-(trifluoromethyl)cyclopropyl)ethyl)urea] was run?
**A.** Its IC50 is less than 100 nM.

**Q.** And the IC50 (Colo205 cells)?
**A.** The IC50 was less than 100 nM.

**Q.** And the IC50 (human B-Raf V600E)?
**A.** Its IC50 is less than 150 nM.

**Q.** For `COCCNc1ncc2cc(-c3cc(NC(=O)NC4CC(C)(C)C4)c(F)cc3C)c(C)nc2n1` [Example 31, 1-(3,3-Dimethylcyclobutyl)-3-(2-fluoro-5-(2-((2-methoxyethyl)amino)-7-methylpyrido[2,3-d]pyrimidin-6-yl)-4-methylphenyl)urea], which IC50 (A375 cells) is on record?
**A.** The IC50 was less than 100 nM.

**Q.** And the IC50 (Colo205 cells)?
**A.** Its IC50 is less than 100 nM.

**Q.** And the IC50 (human B-Raf V600E)?
**A.** The IC50 was less than 150 nM.

Source: US9334267B2, “RAF inhibitor compounds” (Deciphera Pharmaceuticals, LLC, priority 2012, dated 2016)
